From patent publication US6896895B2, “Carotenoid esters, carotenoid-enriched feeds, and methods of pigmenting foods and foodstuffs” (DSM IP Assets B.V., priority 2000, dated 2005)
Marks after values point to notes of the source that are not given here.

Key:
[1] = system: skin and shanks of broilers; test: Reflectance colorimetry and visual classification of skin and shanks of broilers; type: in vivo, broiler chickens (Ross 308, Ross 508); set-up: key to Shanks Visual Classification / Skin Visual Classification: −; (+); +; ++ = good color; o = orange; conditions: dry carcasses, average over doses, Table 6
Experimental: (§1) Pigmentation efficacy was assessed in egg yolk, in the back skin of the broiler carcass, and in broiler shanks by reflectance colorimetry accompanied by visual scoring (Roche Colour Fan). The deposition of the ethyl-β-apo-8′-carotenoate (control) and the other carotenoid esters was determined in egg yolk and in the broiler back skin. In addition, the carotenoid levels in plasma and abdominal fat were measured.
(§2) The trials were carried out using chickens of the type Ross 308 (trials MC-24/98 and MC-02/99) and Ross 508 (trials MC-11/99, MC-16/99, MC-24/99, and MC-03/00) (Couvir de la Bohardière, F-49290 Saint Laurent de la Plaine). One-day old broiler chickens, separated by sex, were divided by weight into experimental groups of ten animals each and reared in floor pens littered with wood shavings. The chickens were fed a low carotenoid basal grower diet until day 22 (trials MC-24/98, MC-02/99, and MC-11/99) or until day 15 (trials MC-16/99, MC-24/99, and MC-03/00). The low carotenoid basal grower diet contained less than 2 mg total xanthophylls per kg of feed, and its composition is described in Table 2. For the subsequent experimental period of three weeks, the birds received the basal diet supplemented with an appropriate pigment. The feed was given in the form of crumbled pellets during the first week and as pellets thereafter. The animals had unrestricted access to feed and water. A given treatment involved one group of male and one group of female chickens. Each group of chickens was weighed at day 22 (trials MC-24/98, MC-02/99, and MC-11/99) or day 15 (trials MC-16/99, MC-24/99, and MC-03/00) and on day 43. On day 42, five chickens per group were selected at random, labelled, and blood samples were taken from the jugular vein. At the end of the experiment (day 44) the animals were slaughtered in a commercial slaughterhouse (Freyburger, Dannemarie, France). The following day, the color of the skin (hind back of carcasses) and the shanks of the labelled chicken were measured by reflectance colorimetry (Minolta CR 200 apparatus, CIE-Lab system). Samples of the dorsal skin and abdominal fat were obtained, pooled for each experimental group, and the carotenoid concentration was determined. The concentration of carotenoids in feed, plasma, skin, and abdominal fat was determined by standard procedures as described after Tables 1 and 2.
The color of broiler skin and shanks was measured using a tristimulus Minolta CR-300 Chromameter with diffuse D65-illumination and a 0° viewing angle. The color of the skin was read at three different points on the back of the dry broiler carcasses and average values of the triple measurements were recorded. The color of shanks was measured using single measurements at the ball between the toes.
(§3) The color data were expressed as CIE L*a*b*-values including h*(hue) and C* (chroma). The values given in the tables per treatment and trial represent averages of color measurements of four egg yolk pools, ten broiler back skins, or ten broiler shanks (5 males and 5 females).

egg yolk = test: Egg yolk colour: reflectance colorimetry and Roche Yolk Colour Fan; type: in vivo, laying hens (ISA Brown); conditions: egg yolk, laying hens
Experimental: as §1
The trials were carried out following the standard experimental design used for egg yolk pigmentation trials at the Roche Research Center for Animal Nutrition (CRNA, F-68305 Village-Neuf, France). Each year in February the pigmentation trials are started with a new flock of layers. At the beginning of the trials the age of the laying hens (192 birds, type ‘ISA Brown’) were as follows:
(§4) Preceding the trials the hens were fed a low carotenoid basal diet (produced at the CRNA) without carotenoid supplementation for at least 28 days. During the trials, the control group received the low carotenoid basal diet containing less than 2 mg total xanthophylls per kg of feed. The other animals were fed this diet supplemented with the appropriate pigments for three weeks. The diet was given to the animals ad libitum in mash form. The hens had free access to tap water. Beside the unsupplemented control treatment, treatments were carried out involving the provision of supplemented feed, the results of these treatments being presented in Tables 7-9.
Egg yolk color was assessed as described by Steinberg, et al. (Arch. Geflügelk 64 (4), 180-187 (2000)). The yolks were manually separated from the whites of the eggs. The isolated yolks of three to six eggs were combined, weighed, and stirred with a glass rod until the color appeared homogeneous. The color hue was visually scored using the Roche Yolk Colour Fan (RYCF, version 1993). An aliquot of the pooled egg yolks was transferred into a glass cuvette yielding an approximately 2 cm thick layer. The color was then measured by means of a Dr. Lange Xeno Color LS 100 spectro-colorimeter with diffuse D65-illumination and a 8° viewing angle.
as §3

[2] = Carotenoid ester content in plasma, back skin and abdominal fat of broilers (HPLC); type: in vivo, broiler chickens (Ross 308, Ross 508); conditions: average over doses, Table 4
Experimental: as §1, §2
The content of the various carotenoid esters in feed was determined according to the method of Schierle, et al. (J. Schierle , N. Faccin, V. Riegert, Analytical Methods for Vitamins and Carotenoids in Feed, Revised supplement: Determination of Stabilized Apocarotenoic Ester and Canthaxanthin in Premixes and Feeds, Roche publication no. 50771 (1995), publicly available from. F. Hoffmann-La Roche Ltd., CH-4070 Basel). This method was modified in that the mobile phase of the normal-phase HPLC contained 0.5% instead of 7% acetone in n-hexane, improving the separation of the E/Z-isomers of the carotenoid esters. Peaks were related to all-E- and Z-isomers of the various carotenoid esters by chromatography of heat-isomerized solutions of the respective reference substances in n-hexane. The HPLC system was calibrated with the all-E-isomer of ethyl β-apo-8′-carotenoate. The response factor of the various derivatives was deduced from that of ethyl β-apo-8′-carotenoate taking into account the respective molecular weight. The content of the Z-isomer fractions was calculated based on the response of the all-E-isomer and using a correction factor of 1.4 to account for the lower specific absorbance of the Z-isomers.
(§5) The HPLC-system for in-feed analysis was also used to quantify the carotenoid esters in egg yolk, broiler tissues, and broiler plasma, but the extraction procedure was different for the various matrices.
For plasma extraction, 1.0 g of the well-mixed plasma sample was introduced into a 10 ml test tube with 1.0 ml of demineralized water and 4.0 ml of ethanol, and the contents mixed on a Vortex shaker. […]

[3] = Carotenoid ester content and deposition rate in egg yolk of laying hens (HPLC); type: in vivo, laying hens (ISA Brown); conditions: egg yolk; for Deposition Rate % of Controls: Table 10
Experimental: as §1
Each year in February the pigmentation trials are started with a new flock of layers.
as §4, with “water.” for “water. Beside the unsupplemented control treatment, treatments were carried out involving the provision of supplemented feed, the results of these treatments being presented in Tables 7-9.”
Peaks were related to all-E- and Z-isomers of the various carotenoid esters by chromatography of heat-isomerized solutions of the respective reference substances in n-hexane. The HPLC system was calibrated with the all-E-isomer of ethyl β-apo-8′-carotenoate. The response factor of the various derivatives was deduced from that of ethyl β-apo-8′-carotenoate taking into account the respective molecular weight. The content of the Z-isomer fractions was calculated based on the response of the all-E-isomer and using a correction factor of 1.4 to account for the lower specific absorbance of the Z-isomers.
as §5
For the extraction of egg yolk, 10 g of pooled and homogenised yolk were mixed with 10 ml of demineralized water using a dispersion instrument (Polytron). 1.0 g of diluted egg yolk was introduced into a 10 ml test tube with 1.0 ml of demineralized water and 2.0 ml of ethanol, and the contents were mixed on a Vortex shaker. After addition of 4.0 ml of n-hexane, the mixture was further treated as described for plasma.

[4] = trial H-18/99, 5.0 mg/kg feed, Table 8
[5] = trial H-18/99, 5.0 mg/kg feed, Table 10
[6] = trial H-12/99, 2, 4, 8 mg/kg feed, Table 8
[7] = trial H-12/99, 2, 4, 8 mg/kg feed, Table 10
[8] = trials H-18, 22/99, 1, 2, 4, 5, 8 mg/kg feed, Table 8
[9] = trials H-18, 22/99, 1, 2, 4, 5, 8 mg/kg feed, Table 10
[10] = control, n = 16, 1.0-8.0 mg/kg feed

Row | Compound | Shanks Chroma C*ab % of Controls [1] | Shanks Color Hue h*ab % of Controls [1] | Shanks Visual Classification [1] | Skin Chroma C*ab % of Controls [1] | Skin Color Hue h*ab % of Controls [1] | Skin Visual Classification [1] | Color Fan Value % of Controls (egg yolk; [4]) | Chroma C*ab % of Controls (egg yolk; [5]) | Color Fan Value % of Controls (egg yolk; [5]) | Color Hue h*ab % of Controls (egg yolk; [5]) | Analytical Content as Equivalent of Ethyl β-apo-8′-carotenoate in % of control Fat [2] | Analytical Content as Equivalent of Ethyl β-apo-8′-carotenoate in % of control Plasma [2] | Analytical Content as Equivalent of Ethyl β-apo-8′-carotenoate in % of control Skin [2] | Deposition Rate Target Values % of Controls [3, 4] | Ethyl β-apo-8′-carotenoate Equivalents % of Controls [3, 4] | Deposition Rate % of Controls ([3]; trial H-18/99, 5.0 mg/kg feed) | other results
1 | COC(=O)C(C)=CC=CC(C)=CC=CC=C(C)C=CC=C(C)C=CC1=C(C)CCCC1(C)C [(1), methyl beta-apo-8′-carotenoate] | 97% | 101% | (+) | 97% | 100% | (+) | 130% | 104% | 130% | 99% | 85% | 88% | 87% | 99% | 95% | 99% | 
2 | CCCOC(=O)C(C)=CC=CC(C)=CC=CC=C(C)C=CC=C(C)C=CC1=C(C)CCCC1(C)C [(2), n-propyl beta-apo-8′-carotenoate] | 108% | 99% | (+) | 93% | 97% | (+) |  |  |  |  | 39% | 68% | 45% |  |  |  | Color Fan Value % of Controls (egg yolk; [6]): 110%; Chroma C*ab % of Controls (egg yolk; [7]): 95%; Color Fan Value % of Controls (egg yolk; [7]): 110%; Color Hue h*ab % of Controls (egg yolk; [7]): 101%; Deposition Rate Target Values % of Controls [3, 6]: 77%; Ethyl β-apo-8′-carotenoate Equivalents % of Controls [3, 6]: 73%; Deposition Rate % of Controls ([3]; trial H-12/99, 2, 4, 8 mg/kg feed): 77%
3 | CC(C=CC=C(C)C=CC1=C(C)CCCC1(C)C)=CC=CC=C(C)C=CC=C(C)C(=O)OCC(C)C [(4), isobutyl beta-apo-8′-carotenoate] | 72% | 105% | (+) | 84% | 98% | (+) | 116% | 104% | 116% | 101% |  | 58% |  | 83% | 74% | 83% | 
4 | CCC(C)OC(=O)C(C)=CC=CC(C)=CC=CC=C(C)C=CC=C(C)C=CC1=C(C)CCCC1(C)C (stereo not drawn) [(5), sec. butyl beta-apo-8′-carotenoate] | 100% | 101% | + | 100% | 101% | + |  |  |  |  | 53% | 94% | 74% |  |  |  | Color Fan Value % of Controls (egg yolk; [8]): 88%; Chroma C*ab % of Controls (egg yolk; [9]): 103%; Color Hue h*ab % of Controls (egg yolk; [9]): 102%; Color Fan Value % of Controls (egg yolk; trials H-18, 22/99, 1, 2, 4, 5, 8 mg/kg feed, comparison within same trials, Table 10): 93^1) %; Deposition Rate Target Values % of Controls [3, 8]: 97%; Ethyl β-apo-8′-carotenoate Equivalents % of Controls [3, 8]: 90%; Deposition Rate % of Controls ([3]; trials H-18, 22/99, 1, 2, 4, 5, 8 mg/kg feed, comparison within same trials): 84^1) %
5 | CCOC(=O)/C(C)=C/C=C/C(C)=C/C=C/C=C(C)/C=C/C=C(C)/C=C/C1=C(C)CCCC1(C)C [Ethyl β-apo-8′-carotenoate, ethyl beta-apo-8′-carotenoate, reference compound] |  |  |  |  |  |  |  |  |  |  |  |  |  |  |  |  | Color Fan Value % of Controls (egg yolk; [10]): 100%; Deposition Rate Target Values % of Controls [3, 10]: 100%; Ethyl β-apo-8′-carotenoate Equivalents % of Controls [3, 10]: 100%
